# Measurements reported in patent US20250345333A1, “THERAPIES WITH PPAR AGONISTS AND FGFR4 INHIBITORS” (TYRA BIOSCIENCES, INC., priority 2022, published 2025).
# Like-named read-outs stand apart in the source and are kept apart here.
# Tests used:
# [1] = system: CYP7A1 expression in HuH-7 cells; assay: CYP7A1 mRNA expression (qPCR, relative to Actin) in HuH-7 cells
# Experimental: (§1) Fenofibrate or fenofibric acid was applied at a concentration of 2, 5, and 10 μM added simultaneously in combination with 30 nM of BLU-554 in growth media (DMEM supplemented with 10% Fetal Bovine Serum), for 18 hours. mRNA was then isolated and CYP7A1 expression was measured using TaqMan™ qPCR Assays (CYP7A1 assay ID: Hs00167982_m1, ACTNB assay ID: Hs99999903_m1).
# (§2) Hep3B and HUH-7 cells were treated with 10 μg/ml mouse Isotype monoclonal IgG control (R&D-MAB002), or 2 μg/ml, 5 μg/ml, and 10 μg/ml of hFGF19 Antibody (R&D-AF969) for 24 hours. mRNA was then isolated and CYP7A1 expression was measured using qPCR. The depicted data represent the fold change in CYP7A1 mRNA levels compared to vehicle (DMSO) treated cells, and Actin was used as internal control.
# (§3) Hep3B and HUH-7 cells were treated with 10 μg/ml of hFGF19 Antibody (R&D-AF969) in combination with 2 μM, 5 μM, or 10 μM of fenofibrate, for 24 hours. Two control groups included; untreated cells, and cell treated with 10 μg/ml mouse Isotype monoclonal IgG (R&D-MAB002), for 24 hours.
# [2] = system: CYP7A1 expression in Hep3B cells; assay: CYP7A1 mRNA expression (qPCR, relative to Actin) in Hep3B cells
# Experimental: as §1, §2, §3
# [3] = system: serum C4 (7-alpha-hydroxy-4-cholestene-3-one); assay: Serum C4 in C57BL/6 mice dosed orally
# Experimental: For the in vivo experiments, male C57BL/6 mice were dosed orally with vehicle, fenofibrate, an FGFR4 inhibitor, or with a combination of fenofibrate and an FGFR4 inhibitor at the doses indicated. Before the final day of the study, animals were fasted overnight and serum was collected 4 hours after the final dose. Serum C4 (7-alpha-hydroxy- 4-cholestene-3-one) analyses were carried out on an Agilent 6495 triple quadrupole mass spectrometer with jet stream source coupled to an Agilent 1290 UPLC stack. Data was processed using Waters TargetLynx data processing software. Calibration curves were generated using reference standard (7A4C; Sigma-Aldrich). Calibration range was from 0.5ng/ml-200 ng/ml with an internal deuterated standard (7A4C-D7; Avanti Polar Lipids) concentration of 100 ng/ml. […] When combination treatments were tested, the vehicle treatment groups received both vehicles, formulated separately. In the combination treatment groups, the compounds were formulated and dosed separately. The mean C4 value for each group of 4 mice is shown, and error bars represent standard error of the mean.
# [4] = system: Cyp7a1 mRNA expression in mouse livers; assay: Liver Cyp7a1 mRNA expression in mice
# Experimental: For the in vivo experiments, male C57BL/6 mice were dosed orally with vehicle, fenofibrate, an FGFR4 inhibitor, or with a combination of fenofibrate and an FGFR4 inhibitor at the doses indicated. Before the final day of the study, animals were fasted overnight and serum was collected 4 hours after the final dose. Serum C4 (7-alpha-hydroxy- 4-cholestene-3-one) analyses were carried out on an Agilent 6495 triple quadrupole mass spectrometer with jet stream source coupled to an Agilent 1290 UPLC stack. Data was processed using Waters TargetLynx data processing software. Calibration curves were generated using reference standard (7A4C; Sigma-Aldrich). Calibration range was from 0.5ng/ml-200 ng/ml with an internal deuterated standard (7A4C-D7; Avanti Polar Lipids) concentration of 100 ng/ml. The vehicle for fenofibrate, FGF401 and H3B-6527 was 0.5% methylcellulose/0.5% tween 80 (MC/Tween), and the vehicle for BLU554 was 80% PEG400/4% hydroxypropyl-β-cyclodextrin (HPBCD). When combination treatments were tested, the vehicle treatment groups received both vehicles, formulated separately. In the combination treatment groups, the compounds were formulated and dosed separately.
# [5] = system: serum C4 (7-alpha-hydroxy-4-cholestene-3-one); assay: Serum C4 in athymic nude mice carrying HuH-7 tumors; format: in vivo; conditions: 14 days; for serum C4 levels: HuH-7 tumor-bearing mice, inhibitor alone: BLU554 100 mg/kg BID, FGF401 30 or 100 mg/kg BID
# bile acid (BA) levels = assay: Bile acid levels in liver, plasma and gallbladder of athymic nude mice; conditions: oral, BID, 3 weeks; H3B-6527 300 mg/kg, FGF401 30 mg/kg; 4 hours after final dose; vs vehicle
# Experimental: FIGS. 14A-14C are bar graphs depicting changes in bile acid (BA) levels (fold change over control) in liver (FIG. 14A), plasma (FIG. 14B), and gallbladder (FIG. 14C) of athymic nude (Nu/Nu) mice treated orally with vehicle ((1) 0.5% MC/tween), H3B-6527 ((2) 300 mg/kg, BID), or FGF401/Roblitinib ((3) 30 mg/kg, BID), for 3 weeks. Four hours after the final dose, mice were euthanized and plasma, liver and gallbladder samples were collected, and bile acid levels measured.
# FIGS. 14A-14C are bar graphs depicting changes of bile acid (BA) levels (fold change over control) in liver (FIG. 14A), plasma (FIG. 14B), and gallbladder (FIG. 14C) of athymic nude (Nu/Nu) mice treated orally with vehicle (0.5% MC/tween), H3B-6527 (300 mg/kg, BID), or FGF401/Roblitinib (30 mg/kg, BID), for 3 weeks. Four hours after the final dose, mice were euthanized and plasma, liver and gallbladder samples were collected and bile acid levels measured. Bile acids were measured at the metabolomics core facility of University of Kansas Medical Center, following an established protocol.
# [6] = system: serum C4 (7-alpha-hydroxy-4-cholestene-3-one); assay: Serum C4 in athymic nude (Nu/Nu) mice; format: in vivo; conditions: FGF401 at 30 mg/kg, H3B-6527 at 300 mg/kg
smiles,measurement,setting,value
"C=CC(=O)N[C@H]1CCOC[C@H]1Nc1ncc2cc(-c3c(Cl)c(OC)cc(OC)c3Cl)ccc2n1 [BLU-554, fisogatinib]",CYP7A1 expression (Relative mRNA expression/Actin),[1],increased CYP7A1 expression
same,CYP7A1 expression (Relative mRNA expression/Actin),[2],increased CYP7A1 expression
same,levels of serum C4,"[3]; C57BL/6 mice, BLU554 at 100 mg/kg",increases in levels of serum C4
same,liver Cyp7a1 mRNA expression (% Actb),[4]; BLU-554 (100 mg/kg) alone,Cyp7a1 upregulation
same,serum C4 levels,[5],significantly raised levels
"COCCNc1cc(NC(=O)N2CCCc3cc(CN4CCN(C)CC4=O)c(C=O)nc32)ncc1C#N [FGF-401, roblitinib]",bile acids level in gall bladder (fold change over control),bile acid (BA) levels,increased bile acids level
same,bile acids level in liver (fold change over control),bile acid (BA) levels,increased bile acids level
same,bile acids level in plasma (fold change over control),bile acid (BA) levels,increased bile acids level
same,CYP7A1 expression (Relative mRNA expression/Actin),[1],increased CYP7A1 expression
same,levels of serum C4,[6],increases in levels of serum C4
same,CYP7A1 expression (Relative mRNA expression/Actin),[2],increased CYP7A1 expression
same,serum C4 levels,[5],significantly raised levels
C=CC(=O)N1CC[C@H](n2nc(C#Cc3cc(OC)cc(OC)c3)c3c(N)ncnc32)C1 [futibatinib],CYP7A1 expression (Relative mRNA expression/Actin),"[1]; HuH-7 cells, increasing concentrations of inhibitor alone, 18 hours",increased CYP7A1 expression
same,CYP7A1 expression (Relative mRNA expression/Actin),"[2]; Hep3B cells, increasing concentrations of inhibitor alone, 18 hours",increased CYP7A1 expression
CC(C)OC(=O)C(C)(C)Oc1ccc(C(=O)c2ccc(Cl)cc2)cc1 [fenofibrate],serum C4 levels,"[3]; different doses of fenofibrate in combination with BLU-554 (100 mg/Kg), 6 days",reduced the increase in C4 caused by BLU554
same,liver Cyp7a1 mRNA expression (% Actb),[4]; fenofibrate co-administered with BLU-554 (100 mg/kg),"reversed BLU-554-induced Cyp7a1 upregulation in mouse livers, in a dose dependent manner"
same,rise in serum C4,[5]; fenofibrate 40 mg/kg QD plus BLU554 100 mg/kg BID,significantly attenuated the rise in C4
same,rise in serum C4,[5]; fenofibrate 40 mg/kg QD plus FGF401 30 mg/kg BID,attenuated the rise in C4
C=CC(=O)Nc1cc(N2CCN(CC)CC2)ccc1Nc1cc(N(C)C(=O)Nc2c(Cl)c(OC)cc(OC)c2Cl)ncn1 [H3B-6527],levels of serum C4,[6],increases in levels of serum C4
COc1cc(OC)cc(N(CCNC(C)C)c2ccc3ncc(-c4cnn(C)c4)nc3c2)c1 [erdafitinib],CYP7A1 expression (Relative mRNA expression/Actin),[1],increased CYP7A1 expression
same,CYP7A1 expression (Relative mRNA expression/Actin),[2],increased CYP7A1 expression
